Source: PubChem BioAssay (NCI)
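Protocol summary: plate cells (96-well), add compound at 5 concentrations, incubate 48 h, interpolate endpoints linearly. At the GI50, growth is halved. Definition used: TGI = concentration required for complete inhibition of growth.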

Legend:
Test in all cases: growth of human tumour cells (NCI), 48 h
SK-MEL-28 melanoma = test system: SK-MEL-28 melanoma
OVCAR-5 ovarian = test system: OVCAR-5 ovarian
NCI-H522 lung = test system: NCI-H522 lung
BT-549 breast = test system: BT-549 breast
T-47D breast = test system: T-47D breast
CAKI-1 renal = test system: CAKI-1 renal
HS 578T breast = test system: HS 578T breast
HCT-15 colon = test system: HCT-15 colon

Row | SMILES | GI50 (SK-MEL-28 melanoma) [µM] | TGI (SK-MEL-28 melanoma) [µM] | GI50 (OVCAR-5 ovarian) [µM] | TGI (OVCAR-5 ovarian) [µM] | GI50 (NCI-H522 lung) [nM] | TGI (NCI-H522 lung) [µM] | GI50 (BT-549 breast) [µM] | TGI (BT-549 breast) [µM] | GI50 (T-47D breast) [nM] | TGI (T-47D breast) [µM] | GI50 (CAKI-1 renal) [µM] | TGI (CAKI-1 renal) [µM] | GI50 (HS 578T breast) [µM] | TGI (HS 578T breast) [µM] | GI50 (HCT-15 colon) [µM] | TGI (HCT-15 colon) [µM]
1 | C=C(C)[C@@H]1CC[C@]2(C)[C@H](C(=O)C=C3[C@@H]4C[C@](C)(C(=O)N5CCN(C)CC5)CC[C@]4(C)CC[C@]32C)[C@@]1(C)CCC#N | 7.23 | 13.8 | 7.01 | 13.6 | 7210 | 15.3 | 6.67 | 13.4 | 4420 | 13.4 | 6.27 | 12.5 | 7.99 | 20.9 | 4.2 | 10.9
2 | CC(C)CCOc1ccc(-c2n[nH]c(C(F)(F)F)c2-c2cncc(C#N)c2)c(O)c1 | 2.17 | > 100 | 3.21 | > 100 | 1800 | 10 | 2.57 | 9.51 | 1560 | 6.54 | 3.17 | 13.6 | 2.91 | 21.4 | 2.4 | 13.4
3 | COc1ccc(Nn2c(SCC(=O)Nc3nc(-c4ccc(Cl)cc4)cs3)nc(C)c2C)cc1 | 18 | > 100 | > 100 | > 100 | 5050 | > 100 | 6.46 | 82 | 1230 | 8.04 | 2.16 | > 100 | 11.8 | > 100 | 4.79 | > 100
4 | OCCCN=NNc1ccc(-c2nc3ccccc3[nH]2)cc1 | 2.47 | 6.46 | > 100 | > 100 | 12500 | 60.6 | 34.4 | 96.8 | 2150 | 6.65 | 15.4 | 39.3 | 4.54 | 21.9 | 4.43 | > 100
5 | CCCCCC(O)C1C(=O)OC(C)C(O)/C=C/C=C/C=C/C=C\C=C(\C)C(O)CC(O)CC(O)CC(O)CC(O)CC(O)CC1O (configuration not stated) | > 100 | > 100 | > 100 | > 100 | > 100000 | > 100 | > 100 | > 100 | > 100000 | > 100 | > 100 | > 100 | > 100 | > 100 | > 100 | > 100
6 | COc1ccc(-c2ccc(/C=N/n3c(COc4ccccc4Cl)nn(CN4CCN(C)CC4)c3=S)o2)c([N+](=O)[O-])c1 | 24.5 | 69.4 | 21.6 | 46.6 | 29500 | > 100 | 17.2 | 43 | 22100 | 77.1 | 5.19 | 14.6 | 38.7 | 81.4 | 17.4 | 38.3
7 | CCSCC(N)C(=O)O (configuration not stated) |  | > 100 |  | > 100 |  | > 100 |  | > 100 |  | > 100 |  | > 100 |  | > 100 |  | > 100
8 | CC(C)[C@@]12C[C@@H](OC(=O)[C@H]3CO3)[C@@](C)(O1)[C@@H]1CC[C@@H](C)[C@H]1[C@@H]2OC(=O)/C=C/c1ccccc1 | 18.7 | 57.2 | 20.5 | 68 | 14300 | 32.7 | 1.34 | 13.7 | 8110 | > 49.9 | 6.83 | > 100 | 0.0736 | 0.501 | 11.1 | > 100
9 | COc1cc2c(cc1OCCOS(C)(=O)=O)N=C[C@@H]1CCCN1C2=O |  | 61.5 |  |  | 10900 | 30.1 |  |  |  | > 100 | 17.7 | 32.1 |  | 81 | 16.5 | 31.1
10 | CCCCCCCC/C=C/CCCCCCCCC1=NCCN1CCO | 10.5 | 24.4 | 10.8 | 24 | 6340 | 25.9 | 11.3 | 40.2 | 2960 | 9.96 | 3.61 | 14.8 | 2.37 | 7.68 | 2.42 | 7.58
11 | COC(=O)c1ccc2c(c1)nc(-c1cc3ccccc3[nH]c1=O)n2-c1cc(C(C)(C)C)[nH]n1 |  |  |  |  | 1190 | > 100 | 4.88 | 66.2 | > 100000 | > 100 | 1.24 | > 95.1 | 0.574 | > 58.4 |  | 
12 | COc1cc(C(=O)/C=C/c2cc(C(=O)c3cc(OC)c(OC)c(OC)c3)ccc2OC)ccc1N | 1.36 | 3.75 |  |  |  |  |  |  |  |  | 0.669 | 19.4 | 1.39 | > 100 | 0.37 | 2.12
13 | COc1cc(NCCCCN=C(N)NC(N)=NC(C)C)c2ncccc2c1 | 12.1 | 24.7 | 17.3 | > 88.3 | 929 | 3.93 | 9.6 | 23.9 | 739 | 8.2 | > 100 | > 100 | 5.51 | 27.1 | > 100 | > 100
14 | O=P(O)(O)c1ccccc1 (tested in a mixture with another compound) |  | > 100 |  | > 100 |  | > 100 |  | > 100 |  | > 100 |  | > 100 |  | > 100 |  | > 100
15 | O=C(OCc1ccccc1)N1CCN(/[N+]([O-])=N/Oc2ccc([N+](=O)[O-])cc2[N+](=O)[O-])CC1 | 13.2 | 31.1 | 6.43 | 67.6 | 3660 | > 100 | 8.15 | 23.4 |  |  | 4.8 | 15.9 | 32.4 | 97.6 | 4.19 | 52.6
16 | NC(=NCCCOc1ccc(Cl)cc1)Nc1ccc(Cl)cc1 | 1.89 | 3.64 | 2.02 | 6.56 | 2050 | 4.8 | 3.35 | 10 |  |  | 2.77 | 9.11 | 3.39 | 14 | 2.98 | 9.29
17 | C/C(=N\NC(=O)c1ccncc1)c1ccc2ccccc2c1O |  | > 100 |  | > 100 |  | 12.4 |  | > 100 |  | 14.5 |  | > 84.5 |  | 98.1 |  | > 100

Row | SMILES | GI50 (SK-MEL-28 melanoma) [µM] | TGI (SK-MEL-28 melanoma) [µM] | GI50 (OVCAR-5 ovarian) [µM] | TGI (OVCAR-5 ovarian) [µM] | GI50 (NCI-H522 lung) [nM] | TGI (NCI-H522 lung) [µM] | GI50 (BT-549 breast) [µM] | TGI (BT-549 breast) [µM] | GI50 (T-47D breast) [nM] | TGI (T-47D breast) [µM] | GI50 (CAKI-1 renal) [µM] | TGI (CAKI-1 renal) [µM] | GI50 (HS 578T breast) [µM] | TGI (HS 578T breast) [µM] | GI50 (HCT-15 colon) [µM] | TGI (HCT-15 colon) [µM]
18 | NC(=O)C1=NNc2ccccc2C(=O)N1c1ccccc1 |  | > 100 |  | > 100 |  | > 100 |  | > 100 |  | > 100 |  | > 100 |  | > 100 |  | > 100
19 | Cc1nc2sccn2c(=O)c1CCN1CCC(=C(c2ccc(F)cc2)c2ccc(F)cc2)CC1 | 13.4 | 26.9 | 15.2 | 29.4 | 11100 | 25.7 | 9.38 | 24.5 | 11700 | 28.9 | 12.9 | 25.7 | 16.3 | 43.3 | 4.53 | 17.5
20 | N#Cc1c(-c2ccc(Cl)cc2)n(O)c2ccccc12 | 1.42 | 26.4 | 4.08 | > 100 | 2110 | 6.32 | 1.16 | 7.97 | 2880 | 11.1 | 1.95 | 5.2 |  |  | 1.8 | 18.9
21 | O=C1C(Br)=CC2(C=C1Br)CCN=c1c2c(O)c2nc3ccccc3c3ccnc1c23 | 0.803 | 2.49 | 7.22 | 17.6 | 727 | 1.49 | 5.83 | 12.2 | 1130 | 3.76 | 1.01 | 3.29 | 4 | 17.1 | 0.829 | 1.59
22 | O=C(O)C1C(C(=O)Nc2ccc3c(c2)Cc2ccccc2-3)C2(Cl)C(Cl)=C(Cl)C1(Cl)C2(Cl)Cl (configuration not stated) |  | 46.3 |  | 38.6 |  | 39.2 |  | 39.2 |  | > 100 |  | > 100 |  | 49.2 |  | 48.5
23 | COc1ccc(C(=O)c2ccc(OC)c(OC)c2OC)cc1 | 4.51 | > 100 | 8.52 | > 100 | 1810 | 6.03 | 6.16 | > 100 | 5370 | > 100 | 1.21 | > 100 | 0.915 | 3.65 | 0.596 | > 100
24 | CC(C)(C)[Si](C)(C)OCC1OC(n2cnc3c(NC(=O)c4ccccc4)ncnc32)CC1O (configuration not stated) |  | 87.4 |  | > 100 |  | 37.7 |  |  |  | 99.5 |  | > 100 |  | 45.8 |  | > 100
25 | C1CCN(CCC2CCCCN2)CC1 (configuration not stated) |  | > 100 |  | > 100 |  | > 100 |  | > 100 |  | > 100 |  | > 100 |  | > 100 |  | > 100
26 | CC(=O)c1ccc(NC(=O)CSc2nnc(-c3cc(-c4ccc(C)cc4)nc4ccccc34)o2)cc1 | > 100 | > 100 | 6.01 | > 100 | 2390 | 9.06 | 2.44 | 7.89 |  |  |  |  | 4.06 | 39.4 | 4.95 | > 100
27 | CCCCCCCCCCCCCCCCCC1=NCCN1CS(=O)(=O)O | 19.2 | 34.7 | 15.4 | 32.7 | 24500 | 54 | 19.5 | 37.7 | 20000 | 43.1 | 9.3 | 22.6 | 11.6 | 40 | 4.49 | 23.5
28 | CC(=O)N1CC(Nc2ccc(OC(F)(F)F)cc2)=CC1=O | 7.29 | > 100 | > 100 | > 100 | 1800 | 5.75 | 4.16 | > 100 |  |  | 3.05 | > 100 | 3.11 | > 100 | 0.45 | > 100
29 | Cc1ccc(C2NC(=S)NC3=C2CCOc2c3ccc3ccccc23)cc1 (configuration not stated) | 57.4 | > 100 | > 100 | > 100 | > 100000 | > 100 |  |  | 35700 | > 100 | 3.07 | 11.7 | > 100 | > 100 | > 100 | > 100
30 | CCOc1ccc([C@@H]2[C@@H](Oc3ccccc3)C(=O)N2c2cc(OC)c(OC)c(OC)c2)cc1 | 1.89 | > 100 | 0.47 | > 100 | 32.3 | 0.371 | 0.0681 | > 100 | 9480 | > 100 |  |  | 0.0583 | > 100 | 0.186 | > 100
31 | COc1cc(/C=C/c2cc(/C=C/c3ccc(O)c(OC)c3)n(-c3c(C)cccc3C)c(=O)n2)ccc1O | 1.16 | 5.1 | 2.65 | 9.59 | 264 | 1.04 |  |  | 1340 | 4.25 | 0.859 | 14.9 | 0.817 | > 100 | 0.442 | 4.61
32 | ClC1=C(Cl)C(Cl)=C(Cl)C1=C/C=C/c1ccccc1 | 0.249 | 0.597 | 0.338 | 0.968 | 216 | 0.562 |  |  | 153 | 0.631 | 0.198 | 0.561 | 0.208 | 0.685 | 0.179 | 0.391
33 | COc1cccc(C2C(C#N)=C(N)Oc3cc(N)ccc32)c1 (configuration not stated) | 0.663 | > 100 | 1.43 | > 100 | 242 | 0.771 | 0.351 | 54.3 |  |  | 0.47 | > 100 | 0.314 | > 100 | 0.385 | > 100
34 | CCOC(=O)c1sc2nc3sc(N=Nc4ccc(Cl)cc4)c(O)n3c(=S)c2c1C | 28.4 | > 100 | 36.9 | > 100 | 38800 | > 100 |  |  | 609 | 21.9 | 28.1 | 57.3 | 23.8 | 68.4 | 18.3 | 49.3
